Data taken from a flash point compilation (Sun et al. 2020).

Row | SMILES | flash point
1 | Cc1ccc2cccnc2c1 [7-methylquinoline] | 110.00 °C
2 | C=C(C)C(=O)OCCCCCCCC(C)C [8-methylnonyl 2-methylprop-2-enoate] | 121.00 °C
3 | Cc1cccc2cccnc12 [8-methylquinoline] | 105.00 °C
4 | C1=C\CCCC\C=C/1 [(1Z,3Z)-cycloocta-1,3-diene] | 35.00 °C
5 | CC1(C)OCC(CO)O1 (centres undefined) [(2,2-dimethyl-1,3-dioxolan-4-yl)methanol] | 80.00 °C
6 | C=CC(=O)OCC(C)(C)COC(=O)C=C [(2,2-dimethyl-3-prop-2-enoyloxypropyl) prop-2-enoate] | 115.00 °C
7 | CCCCCCCC(=O)Oc1c(Br)cc(C#N)cc1Br [(2,6-dibromo-4-cyanophenyl) octanoate] | 102.00 °C
8 | CC(C)(C)c1ccccc1OP(=O)(Oc1ccccc1)Oc1ccccc1 [(2-tert-butylphenyl) diphenyl phosphate] | 224.00 °C
9 | C1O[C@H]1[C@H]1CO1 [(2R)-2-[(2R)-oxiran-2-yl]oxirane] | 46.00 °C
10 | OC[C@@H](O)[C@@H](O)[C@H](O)[C@@H](O)CO [(2R,3R,4R,5S)-hexane-1,2,3,4,5,6-hexol] | 283.00 °C
11 | CC(C)=CCC/C(C)=C\CO [(2Z)-3,7-dimethylocta-2,6-dien-1-ol] | 107.00 °C
12 | CC(C)C(=O)OCC(C)(C)C(O)C(C)C (centres undefined) [(3-hydroxy-2,2,4-trimethylpentyl) 2-methylpropanoate] | 120.00 °C
13 | CN(C)C(=O)/N=N/C(=O)N(C)C [(3E)-3-(dimethylcarbamoylimino)-1,1-dimethylurea] | 40.00 °C
14 | C=C/C=C/C [(3E)-penta-1,3-diene] | -29.00 °C
15 | CC1CCC(CO)CC1 (centres undefined) [(4-methylcyclohexyl)methanol] | 112.00 °C
16 | C=C(C)[C@H]1CC=C(C)CC1 [(4R)-1-methyl-4-prop-1-en-2-ylcyclohexene] | 48.00 °C
17 | O=C/C=C/c1ccccc1 [(E)-3-phenylprop-2-enal] | 71.00 °C
18 | O=C(O)/C=C/C(=O)O [(E)-but-2-enedioic acid] | 273.00 °C
19 | NC(=O)/N=N/C(N)=O [(E)-carbamoyliminourea] | 96.00 °C
20 | CCCCCCCC/C=C\CCCCCCCC(=O)O [(Z)-octadec-9-enoic acid] | 189.00 °C
21 | CSSC [(methyldisulfanyl)methane] | 24.00 °C
22 | C1=CCC=C1 [InChI=1S/C5H6/c1-2-4-5-3-1/h1-4H,5H2] | 25.00 °C
23 | NCCNCCN [N'-(2-aminoethyl)ethane-1,2-diamine] | 102.00 °C

Row | SMILES | flash point
24 | CNCCCN [N'-methylpropane-1,3-diamine] | 36.00 °C
25 | Cc1ccccc1N(C)C [N,N,2-trimethylaniline] | 83.00 °C
26 | CN(C)CCN(C)C [N,N,N',N'-tetramethylethane-1,2-diamine] | 10.00 °C
27 | C=CCN(CC=C)CC=C [N,N-bis(prop-2-enyl)prop-2-en-1-amine] | 39.00 °C
28 | CCCCN(CCCC)CCCC [N,N-dibutylbutan-1-amine] | 85.00 °C
29 | CCN(CC)C(C)=O [N,N-diethylacetamide] | 77.00 °C
30 | CCN(CC)N=O [N,N-diethylnitrous amide] | 63.00 °C
31 | CN(C)Cc1ccccc1 [N,N-dimethyl-1-phenylmethanamine] | 57.00 °C
32 | CN(C)C1CCCCC1 [N,N-dimethylcyclohexanamine] | 42.00 °C
33 | CN(C)N=O [N,N-dimethylnitrous amide] | 61.00 °C
34 | CCCCCN(CCCCC)CCCCC [N,N-dipentylpentan-1-amine] | 102.00 °C
35 | CCCN(CCC)CCC [N,N-dipropylpropan-1-amine] | 37.00 °C
36 | CC(=O)CC(=O)Nc1ccc(C)cc1C [N-(2,4-dimethylphenyl)-3-oxobutanamide] | 171.00 °C
37 | CCCCOCN(C(=O)CCl)c1c(CC)cccc1CC [N-(butoxymethyl)-2-chloro-N-(2,6-diethylphenyl)acetamide] | 114.00 °C
38 | CCCCN(CC)N=O [N-butyl-N-ethylnitrous amide] | 93.00 °C
39 | CCCCN(C)N=O [N-butyl-N-methylnitrous amide] | 32.00 °C
40 | CCCCNC1CCCCC1 [N-butylcyclohexanamine] | 93.00 °C
41 | O=[N+]([O-])N(Cl)c1ccccc1 [N-chloro-N-phenylnitramide] | 205.00 °C
42 | CCNc1ccccc1 [N-ethylaniline] | 85.00 °C
43 | CCCCNCC [N-ethylbutan-1-amine] | 18.00 °C
44 | CCNC1CCCCC1 [N-ethylcyclohexanamine] | 29.00 °C
45 | CNC(C)Cc1ccccc1 (centres undefined) [N-methyl-1-phenylpropan-2-amine] | 9.00 °C
46 | CNC(C)=O [N-methylacetamide] | 108.00 °C

Row | SMILES | flash point
47 | CNc1ccccc1 [N-methylaniline] | 79.00 °C
48 | CCCCCNCCCCC [N-pentylpentan-1-amine] | 51.00 °C
49 | c1ccc(Nc2ccccc2)cc1 [N-phenylaniline] | 153.00 °C
50 | CC(C)Nc1ccccc1 [N-propan-2-ylaniline] | 88.00 °C
51 | CCSC(=O)N(CC(C)C)CC(C)C [S-ethyl N,N-bis(2-methylpropyl)carbamothioate] | 116.00 °C
52 | CCCN(CCC)C(=O)SCC [S-ethyl N,N-dipropylcarbamothioate] | 116.00 °C
53 | CCSC(=O)N1CCCCCC1 [S-ethyl azepane-1-carbothioate] | 139.00 °C
54 | CCCCN(CC)C(=O)SCCC [S-propyl N-butyl-N-ethylcarbamothioate] | 51.00 °C
55 | CCSCc1ccccc1OC(=O)NC [[2-(ethylsulfanylmethyl)phenyl] N-methylcarbamate] | 123.00 °C
56 | NCc1cccc(CN)c1 [[3-(aminomethyl)phenyl]methanamine] | 117.00 °C
57 | COC(=O)Nc1cccc(OC(=O)Nc2cccc(C)c2)c1 [[3-(methoxycarbonylamino)phenyl] N-(3-methylphenyl)carbamate] | 74.00 °C
58 | OCC1CCC(CO)CC1.OCC1CCC(CO)CC1 (centres undefined) [[4-(hydroxymethyl)cyclohexyl]methanol] | 166.00 °C
59 | Br/C=C/c1ccccc1 [[(E)-2-bromoethenyl]benzene] | 79.00 °C
60 | CCC[CH2][Sn]([CH2]CCC)([O]C(C)=O)[O]C(C)=O [[acetyloxy(dibutyl)stannyl] acetate] | 143.00 °C
61 | CCCCCCCCCCCC(=O)[O][Sn]([CH2]CCC)([CH2]CCC)[O]C(=O)CCCCCCCCCCC [[dibutyl(dodecanoyloxy)stannyl] dodecanoate] | 235.00 °C
62 | C1=Cc2cccc3cccc1c23 [acenaphthylene] | 122.00 °C
63 | CC=O [acetaldehyde] | -40.00 °C
64 | CC(=O)O [acetic acid] | 40.00 °C
65 | CC(=O)OCN=[N+](C)[O-] [acetyloxymethylimino-methyl-oxidoazanium] | 99.00 °C
66 | Cl.Nc1ccccc1 [aniline;hydrochloride] | 193.00 °C
67 | O=C1c2ccccc2C(=O)c2ccccc21 [anthracene-9,10-dione] | 185.00 °C
68 | c1ccc2cc3ccccc3cc2c1 [anthracene] | 121.00 °C
69 | Cc1ccc([N+](=O)[O-])cc1.N.Nc1cccc([N+](=O)[O-])c1.Nc1ccccc1[N+](=O)[O-] [azane;1-methyl-4-nitrobenzene;2-nitroaniline;3-nitroaniline] | 154.00 °C

Row | SMILES | flash point
70 | O=C1CCCCCN1 [azepan-2-one] | 125.00 °C
71 | C1CCCNCC1 [azepane] | 37.00 °C
72 | Nc1ccccc1N [benzene-1,2-diamine] | 156.00 °C
73 | Oc1ccccc1O [benzene-1,2-diol] | 127.00 °C
74 | Nc1cccc(N)c1 [benzene-1,3-diamine] | 138.00 °C
75 | O=C(Cl)c1cccc(C(=O)Cl)c1 [benzene-1,3-dicarbonyl chloride] | 180.00 °C
76 | O=S(=O)(O)c1ccccc1 [benzenesulfonic acid] | 113.00 °C
77 | O=C(O)c1ccccc1 [benzoic acid] | 121.00 °C
78 | O=C(OOC(=O)c1ccccc1)c1ccccc1 [benzoyl benzenecarboperoxoate] | 80.00 °C
79 | O=C(Cl)c1ccccc1 [benzoyl chloride] | 72.00 °C
80 | O=C(OCc1ccccc1)c1ccccc1O [benzyl 2-hydroxybenzoate] | 180.00 °C
81 | O=C(Cl)OCc1ccccc1 [benzyl carbonochloridate] | 108.00 °C
82 | c1ccc(Cc2ccccc2)cc1 [benzylbenzene] | 130.00 °C
83 | C1=CC2C=CC1C2 [bicyclo[2.2.1]hepta-2,5-diene] | -21.00 °C
84 | CCCCC(CC)COC(=O)/C=C\C(=O)OCC(CC)CCCC (centres undefined) [bis(2-ethylhexyl) (Z)-but-2-enedioate] | 185.00 °C
85 | CCCCC(CC)COC(=O)c1ccccc1C(=O)OCC(CC)CCCC (centres undefined) [bis(2-ethylhexyl) benzene-1,2-dicarboxylate] | 207.00 °C
86 | CCCCC(CC)COP(=O)(O)OCC(CC)CCCC (centres undefined) [bis(2-ethylhexyl) hydrogen phosphate] | 196.00 °C
87 | COCCOC(=O)c1ccccc1C(=O)OCCOC [bis(2-methoxyethyl) benzene-1,2-dicarboxylate] | 210.00 °C
88 | CC(C)COC(=O)c1ccccc1C(=O)OCC(C)C [bis(2-methylpropyl) benzene-1,2-dicarboxylate] | 196.00 °C
89 | CC(C)CCCCCOC(=O)CCCCC(=O)OCCCCCC(C)C [bis(6-methylheptyl) hexanedioate] | 210.00 °C
